Laboratory results: US6486179B2, “Use of protein kinase C inhibitors to enhance the clinical efficacy of oncolytic agents and radiation therapy” (Eli Lilly and Company, priority 1996, dated 2002)

Key:
protein kinase C = conditions: statement in words, cited from earlier work
[1] = test system: Human leukemia cells U937; experiment: Viability of U937 cells after γ-irradiation (propidium iodide exclusion, FACS); type: cell-based; conditions: 3 nM bryostatin 1 for 24 hours, then 500 or 1000 rads; viability 72 hours after irradiation; triplicate
Description: Human leukemia cells U937 were treated for 24 hours with either 3 nM bryostatin 1 or the control solution, i.e., the vehicle for bryostatin 1. The cells were then irradiated with either 500 or 1000 rads of γ-irradiation. Seventy-two hours after irradiation, cellular viability was examined using propidium iodide exclusion and quantified by FACS analysis as previously described in Ways et al., Cell Growth & Differentiation 1994, 5: 1195-1203. Viability assays were performed in triplicate. […] Similar results were obtained in several repeated experiments.

PKC-β = target: T1, PKC-β (Homo sapiens, UniProt P05771); experiment: Western blot of PKC-β in bryostatin 1 treated U937 cells; type: cell-based
T1 construct: endogenous in cells; host or cells: U937 human leukemia cells
Description: Human leukemia cells U937 in the amount of 0.5×10^6 were treated with various amount of bryostatin 1 for 24 hours. Subsequently, the cells were solubilized for preparation of protein samples according to a routine procedure. The protein samples from bryostatin treated cells were then used in Western blot analysis with a protein kinase C-β specific antiserum previously described in Ways et al., Cell Growth & Differentiation 1994, 5: 1195-1203. […] In a repeated experiment, similar results were obtained.

T1 sequence (P05771 whole entry): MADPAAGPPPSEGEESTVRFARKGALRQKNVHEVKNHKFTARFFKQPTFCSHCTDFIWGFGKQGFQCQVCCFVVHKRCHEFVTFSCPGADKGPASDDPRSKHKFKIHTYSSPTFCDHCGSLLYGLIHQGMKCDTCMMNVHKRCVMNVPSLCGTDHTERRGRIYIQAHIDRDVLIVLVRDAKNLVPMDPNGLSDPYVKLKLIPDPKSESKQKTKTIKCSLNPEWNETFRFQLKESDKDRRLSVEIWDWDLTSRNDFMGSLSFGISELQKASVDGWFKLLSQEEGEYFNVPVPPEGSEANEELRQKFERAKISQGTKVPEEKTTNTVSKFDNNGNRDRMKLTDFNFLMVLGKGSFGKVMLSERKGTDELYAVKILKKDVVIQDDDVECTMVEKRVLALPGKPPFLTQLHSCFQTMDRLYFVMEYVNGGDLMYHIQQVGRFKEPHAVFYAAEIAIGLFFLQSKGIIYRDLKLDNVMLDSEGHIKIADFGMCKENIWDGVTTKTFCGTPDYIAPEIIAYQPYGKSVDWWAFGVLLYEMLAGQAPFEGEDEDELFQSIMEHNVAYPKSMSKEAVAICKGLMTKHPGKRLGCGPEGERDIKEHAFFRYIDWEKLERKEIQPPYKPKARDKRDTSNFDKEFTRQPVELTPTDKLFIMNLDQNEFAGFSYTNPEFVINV

Structure (SMILES)	isozyme selectivity (protein kinase C; selective to protein kinase C over other kinases)	protein kinase C inhibition (protein kinase C; no value)	γ-irradiation-induced apoptosis [1]	time within which bryostatin treatment caused PKC-β activity to decrease (PKC-β; 1 nM bryostatin) [h]	time within which bryostatin treatment caused PKC-β activity to decrease (PKC-β; 10 nM bryostatin) [h]
CN(C)C[C@@H]1CCn2cc(c3ccccc32)C2=C(C(=O)NC2=O)c2cn(c3ccccc23)CCO1.Cl [Example 5g, (S)-3,4-[N, N′-1,1′-((2″-ethoxy)-3′″(O)-4′″-(N,N-dimethylamino)-butane)-bis-(3,3′-indolyl)]-1(H)-pyrrole-2,5-dione Hydrochloride Salt]	selective for the beta-1 and beta-2 isozymes	potent protein kinase C inhibitor	–	–	–
CCC/C=C/C=C/C(=O)O[C@H]1/C(=C/C(=O)OC)C[C@H]2C[C@H]([C@@H](C)O)OC(=O)C[C@H](O)C[C@@H]3C[C@H](OC(C)=O)C(C)(C)[C@](O)(C[C@@H]4C/C(=C/C(=O)OC)C[C@H](/C=C/C(C)(C)[C@]1(O)O2)O4)O3 [bryostatin 1]	–	–	enhanced	≤ 24	≤ 2
